Patent publication US20130045931A1 (priority 2010, published 2013)

How the values were obtained:
[1] = system: Gram-positive bacteria; settings: some Gram-positive bacteria; cited from earlier work
[2] = system: Gram-negative bacteria; settings: cited from earlier work
[3] = system: PAXF1657L (pancreatic tumor); experiment: Antiproliferative activity, propidium iodide fluorescence assay (Dengler et al. 1995); assay type: cell-based, human
[4] = system: Xanthomonas campestris (DSM 2405); assay type: cell-based
[5] = system: MAXF401NL (breast cancer); experiment: Antiproliferative activity, propidium iodide fluorescence assay (Dengler et al. 1995); assay type: cell-based, human
[6] = system: LXF529L (lung tumor); experiment: as above; assay type: cell-based, human
[7] = system: Staphylococcus lentus (DSM 6672); experiment: Antibacterial growth inhibition (Lang et al. 2007)
[8] = system: Propionibacterium acnes (DSM 1897); experiment: Antibacterial activity against causative agent of acne vulgaris; assay type: cell-based
[9] = system: Staphylococcus aureus (ATCC 12600); experiment: Antibacterial test, clinically relevant strains (Sahly et al. 2003)
[10] = system: liver tumor cell line HepG2; experiment: CellTiter-Blue cell viability assay; assay type: cell-based, human
From the text: (§1) To determine the proliferation and cytotoxicity in respect of the liver tumor cell line HepG2 and the intestinal tumor cell line HT29, the effect on the metabolic activity of the cells was studied by means of the CellTiter-Blue® cell viability assay as described by O'Brien et al. (2000 Investigation of the alamar blue (resazurin) fluorescent dye for the assessment of mammalian cell cytotoxicity. European Journal of Biochemistry 267: 5421-6).

[11] = system: intestinal tumor cell line HT29; experiment: CellTiter-Blue cell viability assay; assay type: cell-based, human
From the text: as §1

[12] = system: Bacillus subtilis (DSM 347); experiment: Antibacterial growth inhibition (Lang et al. 2007)
[13] = system: Pseudomonas aeruginosa (ATCC 10145); experiment: Antibacterial test, clinically relevant strains (Sahly et al. 2003); settings: biofilm former
[14] = system: GXF251L (gastric tumor); experiment: Antiproliferative activity, propidium iodide fluorescence assay (Dengler et al. 1995); assay type: cell-based, human
[15] = system: Staphylococcus aureus (ATCC 33593, methicillin-resistant); experiment: Antibacterial test, clinically relevant strains (Sahly et al. 2003)
[16] = system: Phytophthora infestans; assay type: cell-based; settings: Phytophthora infestans (Isolate), 48 hours at 20° C. in the dark
[17] = system: Staphylococcus epidermidis (Isolate, biofilm former); experiment: Antibacterial test, clinically relevant strains (Sahly et al. 2003)

Which results are given for `Cc1cc2cc(O)c3c(c2c(O[C@@H]2C[C@H](N(C)C)[C@@H](O)[C@@H](C)O2)c1[C@@H]1C[C@H](N(C)C)[C@@H](O)[C@H](C)O1)C(=O)c1cccc(O)c1C3=O` [benzanthrin A]?
activity against Gram-positive bacteria [1]: active against some Gram-positive bacteria; activity against Gram-negative bacteria [2]: not against Gram-negative bacteria

With mayamycin as the compound, how does the IC50 [3] read?
Its IC50 is 150 nM.

And the IC50 [4]?
Its IC50 is 30000 nM.

What about the IC50 [5] of the same compound?
Its IC50 is 290 nM.

What about the IC50 [6] of the same compound?
The IC50 was 160 nM.

And the IC50 [7]?
The IC50 was 8000 nM.

What about the IC50 [8] of the same compound?
Its IC50 is 31200 nM.

What about the IC50 [9] of the same compound?
Its IC50 is 2500 nM.

What about the IC50 [10] of the same compound?
The IC50 was 200 nM.

What about the IC50 [11] of the same compound?
Its IC50 is 300 nM.

What about the IC50 [12] of the same compound?
The IC50 was 8000 nM.

And the IC50 [13]?
The IC50 was 2500 nM.

And the IC50 [14]?
Its IC50 is 200 nM.

What about the IC50 [15] of the same compound?
The IC50 was 1250 nM.

And the IC50 [16]?
Its IC50 is 15200 nM.

And the IC50 [17]?
The IC50 was 310 nM.

Which “activity against Gram-positive bacteria” value [1] does the source give for `Cc1cc2cc(O)c3c(c2c(O[C@@H]2C[C@H](N(C)C)[C@H](O)[C@@H](C)O2)c1[C@@H]1C[C@H](N(C)C)[C@@H](O)[C@H](C)O1)C(=O)c1cccc(O)c1C3=O` [benzanthrin B] here?
Its value is “active against some Gram-positive bacteria”.

What about the “activity against Gram-negative bacteria” value [2] of the same compound?
Its value is “not against Gram-negative bacteria”.
